The values below come from PubChem BioAssay AID651630 (Sanford-Burnham Center for Chemical Genomics, 2012).

Calls of active or inactive are those of the source.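 How the source made its calls: active means lipid-stain IC50 at or below a set limit, with nuclear-stain toxicity IC50 at least five times higher; inactive means the rest.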

In one assay the test system is TAG. Put plainly: triacylglycerol accumulation inhibitor potency, dose response, cell-based, panel, Nile Red and DAPI fluorescence, H9c2 (AID 651630).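 Further: cells exposed to compound overnight before fixation and staining.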 The settings on record: H9c2 cells, Nile Red TAG fluorescence, oleic acid.
The subject of a further assay is DAPI. The description is as above. The following applies: H9c2 cells, DAPI nuclear fluorescence (cytotoxicity counter-readout), oleic acid.

What is called IC50 is the midpoint of a concentration-inhibition curve. On to `Nc1c(Cl)cc(-c2csc(N3CCCC3c3nc4cc(Cl)c(Cl)cc4n3CCCO)n2)cc1Cl` (centres undefined), for which the IC50 in the assay on TAG (mean of runs) is 8.37 µM; in the assay on TAG (run 1) it was 7.74 µM; in the assay with TAG (run 2), 9 µM. In addition, the IC50 cytotoxicity (DAPI nuclear signal decrease) was > 25 µM (inactive) with DAPI (mean of runs), greater than 25 µM with DAPI (run 1) and greater than 25 µM with DAPI (run 2).

Turning to `Cc1cccc(N2CCN(C(=O)c3c(-c4ccccc4Cl)noc3C)CC2)c1C`, the IC50 in the assay with TAG (mean of runs) was 16.3 µM (inactive); in the assay with TAG (run 1), 16.5 µM; with TAG (run 2), 16 µM. For the same compound, the figures for the IC50 cytotoxicity (DAPI nuclear signal decrease) in the assay on DAPI (mean of runs), in the assay with DAPI (run 1) and with DAPI (run 2) were > 25 µM (inactive), greater than 25 µM and greater than 25 µM, respectively.

As for `Fc1cccc(Nc2nc(-c3ccncc3)nc3ccccc23)c1`, the IC50 is > 25 µM (inactive) in the assay with TAG (mean of runs), greater than 25 µM in the assay on TAG (run 1) and greater than 25 µM in the assay with TAG (run 2). For the same compound, the IC50 cytotoxicity (DAPI nuclear signal decrease) with DAPI (mean of runs) was > 25 µM (inactive); with DAPI (run 1), greater than 25 µM; in the assay with DAPI (run 2), greater than 25 µM.

As for `O=C(/C=C/Sc1ccc(C(F)(F)F)cn1)c1ccccc1`, the results for the IC50 with TAG (mean of runs), with TAG (run 1) and with TAG (run 2) were > 25 µM (inactive), greater than 25 µM and greater than 25 µM, respectively. Further, the IC50 cytotoxicity (DAPI nuclear signal decrease) with DAPI (run 1) is 21 µM; in the assay with DAPI (run 2), greater than 25 µM.

Take `C[C@@H]1CN([C@H](C)CO)C(=O)c2c(c3ccccc3n2C)-c2ccccc2CO[C@H]1CN(C)Cc1ccc(Oc2ccccc2)cc1`: the IC50 in the assay on TAG (mean of runs) is > 25 µM (inactive); in the assay on TAG (run 1), greater than 25 µM; with TAG (run 2), greater than 25 µM. Besides, the IC50 cytotoxicity (DAPI nuclear signal decrease) in the assay on DAPI (run 1) was greater than 25 µM; in the assay on DAPI (run 2), 20 µM.

With `C=CC[C@@H](CC(=O)N(CCO)Cc1ccccc1)C(=O)N[C@@H](COC(=O)[C@@H](CC=C)Cc1ccc(F)cc1)Cc1ccccc1`, the half-inhibitory concentration (IC50) was 9.33 µM with TAG (mean of runs), 8.74 µM with TAG (run 1) and 9.91 µM with TAG (run 2). Further, the IC50 cytotoxicity (DAPI nuclear signal decrease) in the assay with DAPI (mean of runs) is > 25 µM (inactive); in the assay on DAPI (run 1) it was greater than 25 µM; in the assay with DAPI (run 2), greater than 25 µM.

On to `Cc1cc(NC(=O)c2sccc2C)n(-c2nc3ccccc3[nH]2)n1`, for which the IC50 in the assay with TAG (mean of runs) is 20.4 µM (inactive); in the assay with TAG (run 1), 19.9 µM; with TAG (run 2), 20.9 µM. The IC50 cytotoxicity (DAPI nuclear signal decrease) in the assay with DAPI (mean of runs) is > 25 µM (inactive); in the assay with DAPI (run 1), greater than 25 µM; with DAPI (run 2), greater than 25 µM.

On to `COc1cccc(/C=C/C(=C2\C(=O)N(c3ccccc3)N=C2C)c2ccc(Br)cc2)c1OC`, for which the IC50 in the assay on TAG (mean of runs) was 5.18 µM; with TAG (run 1), 5.94 µM; with TAG (run 2), 4.43 µM. The values for the IC50 cytotoxicity (DAPI nuclear signal decrease) in the assay on DAPI (mean of runs), in the assay on DAPI (run 1) and with DAPI (run 2) were > 25 µM (inactive), greater than 25 µM and greater than 25 µM, respectively.

`Cc1ccc(Nc2nc(OC(C(F)(F)F)C(F)(F)F)nc(N3CCOCC3)n2)cc1`: the IC50 was 7.62 µM with TAG (mean of runs), 7.92 µM in the assay on TAG (run 1) and 7.32 µM in the assay with TAG (run 2). Besides, the results for the IC50 cytotoxicity (DAPI nuclear signal decrease) with DAPI (run 1) and in the assay on DAPI (run 2) were 22.3 µM and greater than 25 µM, respectively.

Regarding `CCN(CC)S(=O)(=O)c1ccc(N2CCOCC2)c(NC(=O)c2[nH]c(C)c(C(C)=O)c2C)c1`, the IC50 was 7 µM in the assay on TAG (mean of runs), 6.05 µM in the assay with TAG (run 1) and 7.95 µM with TAG (run 2). In addition, the values for the IC50 cytotoxicity (DAPI nuclear signal decrease) in the assay with DAPI (mean of runs), in the assay with DAPI (run 1) and in the assay with DAPI (run 2) were > 25 µM (inactive), greater than 25 µM and greater than 25 µM, respectively.

For `CCN1CCN(Cc2ccc(NC(=O)c3ccc(C)c(NC(=O)C(=O)c4c[nH]c5ccccc45)c3)cc2C(F)(F)F)CC1`, the IC50 with TAG (mean of runs) is 4.98 µM; in the assay with TAG (run 1), 6.17 µM; in the assay with TAG (run 2) it was 3.8 µM. The results for the IC50 cytotoxicity (DAPI nuclear signal decrease) in the assay with DAPI (mean of runs), in the assay on DAPI (run 1) and in the assay with DAPI (run 2) were 23.8 µM (inactive), 24.4 µM and 23.1 µM, respectively.

Regarding `Cc1cc(C)c2nc(-c3ccncc3)cc(C(=O)N3CCN(Cc4ccccc4Cl)CC3)c2c1`, the figures for the IC50 in the assay with TAG (mean of runs), with TAG (run 1) and in the assay on TAG (run 2) were 12.1 µM, 14.2 µM and 10.1 µM, respectively. Further, the IC50 cytotoxicity (DAPI nuclear signal decrease) with DAPI (mean of runs) is > 25 µM (inactive); in the assay with DAPI (run 1), greater than 25 µM; in the assay on DAPI (run 2), greater than 25 µM.

Regarding `Cc1ccc(Cc2nnc(SCC(=O)Nc3ccccc3)n(N)c2=O)cc1`, the IC50 was 9.19 µM in the assay on TAG (mean of runs), 8.57 µM in the assay on TAG (run 1) and 9.8 µM with TAG (run 2). The IC50 cytotoxicity (DAPI nuclear signal decrease) in the assay on DAPI (mean of runs) was > 25 µM (inactive); with DAPI (run 1), greater than 25 µM; with DAPI (run 2), greater than 25 µM.

`CN(C)CCCNC(=O)CC1C[C@H](C(=O)N2CCCCC2)[C@@]2(CCc3ccccc3)c3[nH]c4ccccc4c3CCN2C1=O` (some centres undefined): the IC50 in the assay on TAG (mean of runs) is 20 µM (inactive); with TAG (run 1) it was 23.2 µM; with TAG (run 2), 16.8 µM. Also, the IC50 cytotoxicity (DAPI nuclear signal decrease) in the assay on DAPI (mean of runs) was > 25 µM (inactive); in the assay with DAPI (run 1), greater than 25 µM; in the assay with DAPI (run 2), greater than 25 µM.

With `C=CCC[C@@H](Cc1ccc(F)cc1)C(=O)OC[C@@H](Cc1c[nH]c2ccccc12)NC(=O)[C@H](CC=C)CC(=O)N(CCO)Cc1ccccc1`, the IC50 in the assay on TAG (mean of runs) was 6.99 µM; with TAG (run 1), 6.29 µM; in the assay on TAG (run 2), 7.69 µM. Also, the figures for the IC50 cytotoxicity (DAPI nuclear signal decrease) in the assay on DAPI (mean of runs), in the assay on DAPI (run 1) and with DAPI (run 2) were > 25 µM (inactive), greater than 25 µM and greater than 25 µM, respectively.

Turning to `CCCCCC(=C/c1ccccc1)/C=N/Nc1ccc(S(=O)(=O)N2CCOCC2)cc1[N+](=O)[O-]`, the IC50 with TAG (mean of runs) is 2.9 µM; with TAG (run 1), 1.96 µM; with TAG (run 2) it was 3.83 µM. The IC50 cytotoxicity (DAPI nuclear signal decrease) with DAPI (run 1) and in the assay with DAPI (run 2) was greater than 25 µM throughout.

Take `CCc1nc(C)c(C(=O)N2CCCC(C(=O)Nc3cccc(-c4cccc(C)c4)c3)C2)o1` (centres undefined): the IC50 is > 25 µM (inactive) in the assay on TAG (mean of runs), greater than 25 µM in the assay on TAG (run 1) and greater than 25 µM in the assay on TAG (run 2). Besides, the IC50 cytotoxicity (DAPI nuclear signal decrease) is > 25 µM (inactive) with DAPI (mean of runs), greater than 25 µM in the assay with DAPI (run 1) and greater than 25 µM in the assay on DAPI (run 2).

With `CCCCC(CC)C(=O)Nc1cc(C(=O)NCc2ccc(C)cc2)ccc1N1CCC2(CC1)CC(c1ccccc1)=NO2` (centres undefined), the values for the IC50 in the assay on TAG (mean of runs), with TAG (run 1) and with TAG (run 2) were 3.47 µM, 3.44 µM and 3.5 µM, respectively. Further, the IC50 cytotoxicity (DAPI nuclear signal decrease) in the assay with DAPI (run 1) and in the assay with DAPI (run 2) was greater than 25 µM throughout.

Regarding `COc1cc([C@@H]2c3cc4c(cc3[C@H](O)[C@H]3COC(=O)[C@H]23)OCO4)cc(OC)c1OC`, the IC50 in the assay with TAG (mean of runs) is > 25 µM (inactive); with TAG (run 1) it was greater than 25 µM; in the assay on TAG (run 2) it was greater than 25 µM. For the same compound, the IC50 cytotoxicity (DAPI nuclear signal decrease) in the assay on DAPI (mean of runs) was > 25 µM (inactive); with DAPI (run 1) it was greater than 25 µM; in the assay with DAPI (run 2), greater than 25 µM.

For `COc1cc(/C=C2/NC(=O)N(Cc3ccccc3F)C2=O)ccc1O`, the IC50 in the assay with TAG (mean of runs) is > 25 µM (inactive); in the assay on TAG (run 1), greater than 25 µM; in the assay with TAG (run 2) it was greater than 25 µM. The IC50 cytotoxicity (DAPI nuclear signal decrease) was > 25 µM (inactive) in the assay with DAPI (mean of runs), greater than 25 µM in the assay with DAPI (run 1) and greater than 25 µM in the assay on DAPI (run 2).

In the case of `C[C@@H]1CN([C@H](C)CO)C(=O)c2c(c3ccccc3n2C)-c2ccccc2CO[C@H]1CN(C)Cc1ccc(-c2ccccc2)cc1`, the figures for the IC50 with TAG (mean of runs), in the assay on TAG (run 1) and in the assay with TAG (run 2) were 14.9 µM, 9.62 µM and 20.1 µM, respectively. In addition, the IC50 cytotoxicity (DAPI nuclear signal decrease) is > 25 µM (inactive) in the assay on DAPI (mean of runs), greater than 25 µM with DAPI (run 1) and greater than 25 µM in the assay with DAPI (run 2).

On to `c1ccc(N(c2ccccc2)c2nc(N3CCCC3)nc(-n3ccnc3)n2)cc1`, for which the IC50 with TAG (mean of runs) was 17.7 µM (inactive); in the assay on TAG (run 1), 19.1 µM; in the assay on TAG (run 2), 16.3 µM. Besides, the IC50 cytotoxicity (DAPI nuclear signal decrease) is > 25 µM (inactive) with DAPI (mean of runs), greater than 25 µM in the assay with DAPI (run 1) and greater than 25 µM in the assay on DAPI (run 2).

As for `CCOC(=O)[C@@H]1[C@H]2COc3ccc(Br)cc3[C@@H]2N2C(=O)N(c3ccc(C(F)(F)F)cc3)C(=O)[C@@]12C`, the IC50 is 3.24 µM in the assay on TAG (mean of runs), 2.27 µM in the assay on TAG (run 1) and 4.21 µM in the assay on TAG (run 2). The IC50 cytotoxicity (DAPI nuclear signal decrease) in the assay on DAPI (run 1) and in the assay on DAPI (run 2) was greater than 25 µM each time.

Take `COc1cc(NC(=O)c2ccco2)c(OC)cc1NC(=O)CCC(=O)Nc1cccc(C)c1C`: the IC50 in the assay on TAG (run 1) is greater than 25 µM; in the assay on TAG (run 2) it was 22.3 µM. The IC50 cytotoxicity (DAPI nuclear signal decrease) in the assay with DAPI (mean of runs) was > 25 µM (inactive); with DAPI (run 1), greater than 25 µM; in the assay on DAPI (run 2) it was greater than 25 µM.

Turning to `COc1ccc(-c2cc(CNc3nc(NC(C)C)nc4cc(-c5ccccc5)sc34)on2)cc1`, the IC50 in the assay on TAG (mean of runs) was 6.39 µM; in the assay with TAG (run 1) it was 6.47 µM; in the assay on TAG (run 2), 6.31 µM. Besides, the results for the IC50 cytotoxicity (DAPI nuclear signal decrease) in the assay on DAPI (mean of runs), in the assay on DAPI (run 1) and in the assay with DAPI (run 2) were > 25 µM (inactive), greater than 25 µM and greater than 25 µM, respectively.

On to `Cn1nc(-c2ccc(Cl)cc2)c2cc(C(=O)NC3CC3)sc21`, for which the IC50 with TAG (mean of runs) is 10.8 µM; in the assay on TAG (run 1), 13 µM; in the assay on TAG (run 2) it was 8.58 µM. The IC50 cytotoxicity (DAPI nuclear signal decrease) with DAPI (mean of runs) was > 25 µM (inactive); in the assay on DAPI (run 1), greater than 25 µM; in the assay on DAPI (run 2), greater than 25 µM.
